Reference: US20070049564A1 (Wyeth, priority 2005, published 2007)
≈ marks a conversion by molar mass, not a printed value. Like-named read-outs stand apart in the source and are kept apart here.

Columns and labels:
P. aeruginosa GC 2214 = test: MIC, broth microdilution; settings: Pseudomonas aeruginosa, GC2214, P. aeruginosa GC 2214
E. coli GC 2231 = test: MIC, broth microdilution; settings: Escherichia coli, GC2231, E. coli GC 2231
E. faecium GC 4556 = test: MIC, broth microdilution; settings: Enterococcus faecium, GC4556, E. faecium GC 4556
E. faecalis GC 2267 = test: MIC, broth microdilution; settings: Enterococcus faecalis, GC2267, E. faecalis GC 2267
E. coli GC 4560 = test: MIC, broth microdilution; settings: Escherichia coli, GC4560, E. coli GC 4560
E. coli GC 2235 = test: MIC, broth microdilution; settings: Escherichia coli, GC2235, E. coli GC 2235
E. coli GC 2203 = test: MIC, broth microdilution; settings: Escherichia coli, GC2203, E. coli GC 2203
Staph. aureus Smith = test: In vivo activity (oral, iv; ED50) against Staph. aureus Smith in mice
Experimental: Representative examples of compounds of Formula I were tested for the oral efficacy using S. aureus Smith in mice.

E. coli GC 3226 = test: MIC, broth microdilution; settings: Escherichia coli, GC3226, E. coli GC 3226
S. aureus GC 2216 = test: MIC, broth microdilution; settings: Staphylococcus aureus, GC2216, S. aureus GC 2216
S. aureus GC 6335 = test: MIC, broth microdilution; settings: Staphylococcus aureus, GC6335, S. aureus GC 6335
S. pneumoniae* GC 4465 = test: MIC, broth microdilution; settings: Streptococcus pneumoniae, S. pneumoniae* GC 4465
E. coli GC 2270 = test: MIC, broth microdilution; settings: Escherichia coli, GC2270, E. coli GC 2270
E. coli GC 2271 = test: MIC, broth microdilution; settings: Escherichia coli, GC2271, E. coli GC 2271
E. coli GC 2232 = test: MIC, broth microdilution; settings: Escherichia coli, GC2232, E. coli GC 2232
E. faecalis GC 2242 = test: MIC, broth microdilution; settings: Enterococcus faecalis, GC2242, E. faecalis GC 2242
S. aureus GC 6467 = test: MIC, broth microdilution; settings: Staphylococcus aureus, GC6467, S. aureus GC 6467
S. agalactiae GC 4564 = test: MIC, broth microdilution; settings: Streptococcus agalactiae, GC4564, S. agalactiae GC 4564
E. coli GC 4559 = test: MIC, broth microdilution; settings: Escherichia coli, GC4559, E. coli GC 4559
S. typhimurium GC 2172 = test: MIC, broth microdilution; settings: Salmonella enterica, TYPHIMURIUM, S. typhimurium GC 2172

CCCCN(CC(=O)Nc1cc(N(C)C)c2c(c1O)C(=O)C1=C(O)[C@]3(O)C(=O)C(C(N)=O)=C(O)[C@@H](N(C)C)C3CC1C2)C(=O)OCOC(=O)C(C)C (stereo partly drawn) [Example 1, ({[(2-{[(7S,10aS)-9-(aminocarbonyl)-4,7-bis(dimethylamino)-1,8,10a,11-tetrahydroxy-10,12-dioxo-5,5a,6,6a,7,10,10a,12-octahydrotetracen-2-yl]amino}-2-oxoethyl)(butyl)amino]carbonyl}oxy)methyl 2-methylpropanoate]
MIC (P. aeruginosa GC 2214; Mouse Serum pre-incubation): 32 µg/mL (≈ 43.8 µM) | MIC (P. aeruginosa GC 2214; Water pre-incubation): > 64 µg/mL | MIC (E. coli GC 2231; Mouse Serum pre-incubation): 1 µg/mL (≈ 1.37 µM) | MIC (E. coli GC 2231; Water pre-incubation): 64 µg/mL (≈ 87.7 µM) | MIC (E. faecium GC 4556; Mouse Serum pre-incubation): 1 µg/mL (≈ 1.37 µM) | MIC (E. faecium GC 4556; Water pre-incubation): 4 µg/mL (≈ 5.48 µM) | MIC (E. faecalis GC 2267; Mouse Serum pre-incubation): 2 µg/mL (≈ 2.74 µM) | MIC (E. faecalis GC 2267; Water pre-incubation): 8 µg/mL (≈ 11 µM) | MIC (E. coli GC 4560; Mouse Serum pre-incubation): 0.5 µg/mL (≈ 0.685 µM) | MIC (E. coli GC 4560; Water pre-incubation): 2 µg/mL (≈ 2.74 µM) | MIC (E. coli GC 2235; Mouse Serum pre-incubation): 0.5 µg/mL (≈ 0.685 µM) | MIC (E. coli GC 2235; Water pre-incubation): 16 µg/mL (≈ 21.9 µM) | MIC (E. coli GC 2203; Mouse Serum pre-incubation): 0.5 µg/mL (≈ 0.685 µM) | MIC (E. coli GC 2203; Water pre-incubation): 16 µg/mL (≈ 21.9 µM) | ED50 (Staph. aureus Smith; Staphylococcus aureus, in Mus musculus, iv, read-out: ED50 SIV (Staph aureus Smith)): 0.6 mg/kg | ED50 (Staph. aureus Smith; Staphylococcus aureus, in Mus musculus, po, read-out: ED50 SOD (Staph aureus Smith)): 4.7 mg/kg | MIC (E. coli GC 3226; Mouse Serum pre-incubation): 1 µg/mL (≈ 1.37 µM) | MIC (E. coli GC 3226; Water pre-incubation): 32 µg/mL (≈ 43.8 µM) | MIC (S. aureus GC 2216; Mouse Serum pre-incubation): 1 µg/mL (≈ 1.37 µM) | MIC (S. aureus GC 2216; Water pre-incubation): 4 µg/mL (≈ 5.48 µM) | MIC (S. aureus GC 6335; Mouse Serum pre-incubation): 2 µg/mL (≈ 2.74 µM) | MIC (S. aureus GC 6335; Water pre-incubation): 4 µg/mL (≈ 5.48 µM) | MIC (S. pneumoniae* GC 4465; Mouse Serum pre-incubation): 0.5 µg/mL (≈ 0.685 µM) | MIC (S. pneumoniae* GC 4465; Water pre-incubation): 0.25 µg/mL (≈ 0.343 µM) | MIC (E. coli GC 2270; Mouse Serum pre-incubation): 0.5 µg/mL (≈ 0.685 µM) | MIC (E. coli GC 2270; Water pre-incubation): 16 µg/mL (≈ 21.9 µM) | MIC (E. coli GC 2271; Mouse Serum pre-incubation): 0.5 µg/mL (≈ 0.685 µM) | MIC (E. coli GC 2271; Water pre-incubation): 16 µg/mL (≈ 21.9 µM) | MIC (E. coli GC 2232; Mouse Serum pre-incubation): 0.5 µg/mL (≈ 0.685 µM) | MIC (E. coli GC 2232; Water pre-incubation): 16 µg/mL (≈ 21.9 µM) | MIC (E. faecalis GC 2242; Mouse Serum pre-incubation): 1 µg/mL (≈ 1.37 µM) | MIC (E. faecalis GC 2242; Water pre-incubation): 4 µg/mL (≈ 5.48 µM) | MIC (S. aureus GC 6467; Mouse Serum pre-incubation): 4 µg/mL (≈ 5.48 µM) | MIC (S. aureus GC 6467; Water pre-incubation): 4 µg/mL (≈ 5.48 µM) | MIC (S. agalactiae GC 4564; Mouse Serum pre-incubation): 0.5 µg/mL (≈ 0.685 µM) | MIC (S. agalactiae GC 4564; Water pre-incubation): 1 µg/mL (≈ 1.37 µM) | MIC (E. coli GC 4559; Mouse Serum pre-incubation): 1 µg/mL (≈ 1.37 µM) | MIC (E. coli GC 4559; Water pre-incubation): 32 µg/mL (≈ 43.8 µM) | MIC (S. typhimurium GC 2172; Mouse Serum pre-incubation): 4 µg/mL (≈ 5.48 µM) | MIC (S. typhimurium GC 2172; Water pre-incubation): > 64 µg/mL

CCCCN(CC(=O)Nc1cc(N(C)C)c2c(c1O)C(=O)C1=C(O)[C@]3(O)C(=O)C(C(N)=O)=C(O)[C@@H](N(C)C)C3CC1C2)C(=O)OCOC(=O)c1ccc(OC)cc1 (stereo partly drawn) [Example 2, ({[(2-{[(7S,10aS)-9-(aminocarbonyl)-4,7-bis(dimethylamino)-1,8,10a,11-tetrahydroxy-10,12-dioxo-5,5a,6,6a,7,10,10a,12-octahydrotetracen-2-yl]amino}-2-oxoethyl)(butyl)amino]carbonyl}oxy)methyl 4-methoxybenzoate]
MIC (P. aeruginosa GC 2214; Mouse Serum pre-incubation): > 64 µg/mL | MIC (P. aeruginosa GC 2214; Water pre-incubation): > 64 µg/mL | MIC (E. coli GC 2231; Mouse Serum pre-incubation): 4 µg/mL (≈ 5.04 µM) | MIC (E. coli GC 2231; Water pre-incubation): 64 µg/mL (≈ 80.6 µM) | MIC (E. faecium GC 4556; Mouse Serum pre-incubation): 4 µg/mL (≈ 5.04 µM) | MIC (E. faecium GC 4556; Water pre-incubation): 8 µg/mL (≈ 10.1 µM) | MIC (E. faecalis GC 2267; Mouse Serum pre-incubation): 4 µg/mL (≈ 5.04 µM) | MIC (E. faecalis GC 2267; Water pre-incubation): 4 µg/mL (≈ 5.04 µM) | MIC (E. coli GC 4560; Mouse Serum pre-incubation): 0.25 µg/mL (≈ 0.315 µM) | MIC (E. coli GC 4560; Water pre-incubation): 4 µg/mL (≈ 5.04 µM) | MIC (E. coli GC 2235; Mouse Serum pre-incubation): 2 µg/mL (≈ 2.52 µM) | MIC (E. coli GC 2235; Water pre-incubation): 64 µg/mL (≈ 80.6 µM) | MIC (E. coli GC 2203; Mouse Serum pre-incubation): 2 µg/mL (≈ 2.52 µM) | MIC (E. coli GC 2203; Water pre-incubation): 64 µg/mL (≈ 80.6 µM) | ED50 (Staph. aureus Smith; Staphylococcus aureus, in Mus musculus, po, read-out: ED50 Staph Smith SOD): 13.3 mg/kg | ED50 (Staph. aureus Smith; iv, read-out: ED50 Staph Smith SIV): 0.71 mg/kg | MIC (E. coli GC 3226; Mouse Serum pre-incubation): 4 µg/mL (≈ 5.04 µM) | MIC (E. coli GC 3226; Water pre-incubation): 64 µg/mL (≈ 80.6 µM) | MIC (S. aureus GC 2216; Mouse Serum pre-incubation): 2 µg/mL (≈ 2.52 µM) | MIC (S. aureus GC 2216; Water pre-incubation): 4 µg/mL (≈ 5.04 µM) | MIC (S. aureus GC 6335; Mouse Serum pre-incubation): 8 µg/mL (≈ 10.1 µM) | MIC (S. aureus GC 6335; Water pre-incubation): 8 µg/mL (≈ 10.1 µM) | MIC (S. pneumoniae* GC 4465; Mouse Serum pre-incubation): 0.5 µg/mL (≈ 0.63 µM) | MIC (S. pneumoniae* GC 4465; Water pre-incubation): 0.25 µg/mL (≈ 0.315 µM) | MIC (E. coli GC 2270; Mouse Serum pre-incubation): 1 µg/mL (≈ 1.26 µM) | MIC (E. coli GC 2270; Water pre-incubation): 64 µg/mL (≈ 80.6 µM) | MIC (E. coli GC 2271; Mouse Serum pre-incubation): 1 µg/mL (≈ 1.26 µM) | MIC (E. coli GC 2271; Water pre-incubation): 64 µg/mL (≈ 80.6 µM) | MIC (E. coli GC 2232; Mouse Serum pre-incubation): 2 µg/mL (≈ 2.52 µM) | MIC (E. coli GC 2232; Water pre-incubation): 64 µg/mL (≈ 80.6 µM) | MIC (E. faecalis GC 2242; Mouse Serum pre-incubation): 4 µg/mL (≈ 5.04 µM) | MIC (E. faecalis GC 2242; Water pre-incubation): 4 µg/mL (≈ 5.04 µM) | MIC (S. aureus GC 6467; Mouse Serum pre-incubation): 4 µg/mL (≈ 5.04 µM) | MIC (S. aureus GC 6467; Water pre-incubation): 8 µg/mL (≈ 10.1 µM) | MIC (S. agalactiae GC 4564; Mouse Serum pre-incubation): 2 µg/mL (≈ 2.52 µM) | MIC (S. agalactiae GC 4564; Water pre-incubation): 2 µg/mL (≈ 2.52 µM) | MIC (E. coli GC 4559; Mouse Serum pre-incubation): 1 µg/mL (≈ 1.26 µM) | MIC (E. coli GC 4559; Water pre-incubation): 64 µg/mL (≈ 80.6 µM) | MIC (S. typhimurium GC 2172; Mouse Serum pre-incubation): > 64 µg/mL | MIC (S. typhimurium GC 2172; Water pre-incubation): > 64 µg/mL
